In brackets after ≈: the same amount, converted by molar mass. Entries after “also recorded” stand apart in the source; their conditions may differ.
Legend:
[1] = Log D7.4 shake-flask octanol-water; format: physicochemical; settings: pH 7.4
Protocol: Log D7.4. Shake-flask octanol-water distribution coefficient was determined at pH 7.4 (Log D7.4). The aqueous solution used is 10 mM sodium phosphate pH 7.4 buffer. The method has been validated for Log D7.4 ranging from -2 to 5.0.
Human Plasma Protein Binding (PPB). PPB was determined using equilibrium dialysis (RED device) to separate free from bound compound. The amount of compound in plasma (10 µM initial concentration) and in dialysis buffer (pH 7.4 phosphate buffer) was measured by LC-MS/MS after equilibration at 37 °C in a dialysis chamber. The fraction unbound (fu) is reported.
Human Liver Microsomal Clint. In vitro intrinsic clearance was determined from human liver microsomes using a standard approach.11 Following incubation and preparation, the samples were analyzed using […]
Rat Hepatocyte Clint. In vitro intrinsic clearance was determined from rat hepatocytes using a standard approach.11 Following incubation and preparation, the samples were analyzed using LC/MS/MS. Refined […]
Calculated LogP and LogD values. Both LogP and LogD predictions are based on a modified version of the method12 where the predicted partition coefficients are composed of the molecules’ atomic increments.
General Chemistry. All starting materials were commercially obtained and were used without further purification, unless specified. Reaction solvents were purified by passage through alumina columns on a purification system manufactured by Innovative Technology (Newburyport, MA). NMR spectra were obtained on Varian NMR systems, operating at 400 or 500 MHz for 1 H acquisitions. LCMS analysis was performed using a Waters AllianceHT e2795 reverse phase HPLC (Waters SunFire C18 4.6 × 50 mm, 3.5 μm column), with a Waters 2996 photodiode array detector scanning from 210 nm to 600 nm, and Waters Micromass ZQ detector (electrospray ionization). Where required, final compounds were purified by preparative reverse phase HPLC (columns Waters Symmetry RP8 30 × 50 mm, 5 μm column, or OBD RP18 30 × 50 mm, 5 μm), with a single wavelength UV−visible detector and Waters Micromass ZQ (electrospray ionization).

[2] = tested on: adult S. mansoni; assay: Phenotypic screen of adult S. mansoni worms, severity scores and descriptors; format: cell-based, Schistosoma mansoni; settings: for Severity Scores (10 μM) 1 h / Severity Scores (10 μM) 5 h / Severity Scores (10 μM) 24 h / Severity Scores (10 μM) 48 h / Descriptors (10 µM) 1 h / Descriptors (10 µM) 24 h / Descriptors (10 µM) 48 h / Descriptors (10 µM) 5 h: adult S. mansoni; for Severity Scores (10 μM) 1 h / Severity Scores (10 μM) 5 h / Severity Scores (10 μM) 24 h / Severity Scores (10 μM) 48 h: scale 0 (no activity) to 4 (maximal activity); for bioactivity against adult S. mansoni: adult schistosomes; for Severity Scores (10 μM) 1 h / Severity Scores (10 μM) 5 h / Severity Scores (10 μM) 24 h / Severity Scores (10 μM) 48 h / bioactivity against adult S. mansoni: 10 μM; for Descriptors (10 µM) 1 h / Descriptors (10 µM) 24 h / Descriptors (10 µM) 48 h / Descriptors (10 µM) 5 h: phenotypic descriptors
Excerpt: Because the schistosome parasite can present multiple and dynamic phenotypic responses to chemical insult,[16] we employ a constrained nomenclature of descriptors to describe the changes in the parasite as a function of time and concentration (e.g., motility, density, and shape; and in the case of the adult parasite, an inability to adhere to the bottom of the assay dish). These descriptors are converted into severity scores on a scale of 0 (green)–4 (severest/red) that allow for partially quantitative comparisons of compound effects.[1]−[19] […] The descriptors themselves and their respective scores are detailed in the Supporting Information, Table S1. Severity score data are presented in the results (with the corresponding descriptors detailed in the Supporting Information, Tables S2–S8), and eight new analogs developed and synthesized in support of this effort are described. Finally, absorption, distribution, metabolism and excretion (ADME) data of all compounds presented in this work are reported in the Supporting Information, Table S15.
Table S1. Descriptors and associated severity scores used for S. mansoni adults.
R (rounded or shape altered 1
On sides (adults unable to 1
Shrunk (adults are shorter 1
surface (tegument) of adults)
dfailed to create analytical method
Maintenance of the Schistosoma mansoni life cycle (NMRI isolate), the preparation of adult worms (≥ 42-
days-old), and their co-incubation with test compounds were as described.7-9 Phenotypic responses were
visually recorded using a constrained nomenclature and converted to severity scores on a scale from zero
(no activity) to 4 (maximal activity).8, 9 Use of hamsters for maintaining the S. mansoni life-cycle was
approved by the Institutional Animal Care and Use Committee of the University of California San Diego.
The human myelomonocytic cell line THP -1 was grown at 37 °C and 5% CO2 in RPMI-1640 supplemented
with 10% iFBS, 2 mM glutamate, 100 U/mL penicillin and […] streptomycin.
Drug toxicity to HepG2 cells .10 HepG2 cells line were obtained from the American Type Culture
Collection and cultured in Minimal Essential Medium (MEM) supplemented with 0.19% sodium
bicarbonate, 10% Fetal Bovine Serum, 2 mM L -glutamine, 0.1 mM MEM non-essential amino, 0.009
mg/mL insulin, 1.76 mg/mL bovine serum albumin. The viability of the cells was measured using the MTT
(thiazolyl blue reduction) method. Briefly, ninety -six-well plates were seeded with 2.5 × 10^4 cells/well in
170 ml of culture medium and incubated overnight in 5% CO 2 at 37 °C. Cells were exposed to different
experimental compounds in DMSO. After 48 hours incubation, the viability of the cells was assessed using
MTT (thiazolyl blue reduction) as a dose response assay (11 two -fold serial dilutions) to obtain a calculated
IC50 determination. 4-Azaindolo[2,1-b]quinazoline-6,12-dione is used as a toxicity positive control and
each assay plate includes the following 3 additional controls: a) background control: no cells and no drug
was added, b) target control: cells added but no drugs, and c) DMSO control: same as the target control
except the culture media contains 0.6% DMSO. Absorbance was determined in all wells using a Perkin
Elmer, Ensight plate reader. The fifty percent inhibitory concentrations (IC50’s) were determined using
GraphPad Prism nonlinear regr ession (sigmoidal dose -response, variable slope) equation .
ADME Experiment Protocols
Aqueous pH 7.4 Solubility. Compounds were dried down from 10 mM DMSO solutions using centrifugal
evaporation technique. Phosphate buffer (0.1 M pH 7.4) was added and StirStix were inserted in the glass
vials, with shaking then performed at a constant temperature of 25 °C for 20 -24 h. This step was followed
by double centrifugation with a tip wash in between, to ensure that no residues of the dried compounds
interfere. The solutions were diluted before analysis and quantification using LC/MS/MS was performed.

[3] = Rat hepatocyte Clint; format: in vitro ADME; settings: rat hepatocytes, intrinsic clearance; read-out: RH CLint
[4] = Human plasma protein binding (equilibrium dialysis); format: in vitro ADME; settings: pH 7.4, 10 µM, 37 °C, read-out: human PPB (plasma protein binding) (converted)
[5] = Human liver microsomal Clint; format: in vitro ADME; settings: human liver microsomes, intrinsic clearance; read-out: HLM Clint
[6] = Aqueous pH 7.4 solubility; format: physicochemical; settings: for solubility: aqueous buffer, thermodynamic from solid, phosphate buffer pH 7.4, 25 °C, 20-24 h, read-out: aq sol (aqueous solubility)

Row | SMILES | logD [1] | Severity Scores (10 μM) 1 h [2] | Severity Scores (10 μM) 5 h [2] | Severity Scores (10 μM) 24 h [2] | Severity Scores (10 μM) 48 h [2] | bioactivity against adult S. mansoni [2] | hepatocyte CLint [3] [µL/min/1e6 cells] | fraction unbound [4] | Descriptors (10 µM) 1 h [2] | microsomal CLint [5] [µL/min/mg] | solubility [6] [µM] | Descriptors (10 µM) 24 h [2] | Descriptors (10 µM) 48 h [2] | Descriptors (10 µM) 5 h [2] | decrease in aqueous solubility compared with 3 ([6]; relative to 3) [fold]
1 | Cc1c(-c2cnc(N3CCCNCC3)nc2)ccc2c(Nc3cnccn3)ccnc12 [9e] | 1.6 | 0 | 2 | 4 | 4 | phenotypic response after 5 h | 5.3 | 0.24 |  |  |  |  |  |  | 
2 | CN1CCCN(c2ncc(-c3ccc4c(c3)ncc3c5ccccc5[nH]c43)cn2)CC1 [6b] |  | 0 | 1 | 1 | 4 | minimal bioactivity after 5 h; also recorded: potent activity after 48 h | 19 |  | none | 110 | 35 (≈ 14.3 µg/mL) |  |  |  | 
3 | CCCN1CCCN(c2ncc(-c3ccc4c(Nc5cnccn5)ccnc4c3C)cn2)CC1 [9d] | 3.3 | 1 | 1 | 4 | 4 | strongly bioactive by 24 h | 36 | 0.06 |  |  |  | Unc, deg | Unc, deg |  | 
4 | CCN1CCCN(c2ncc(-c3ccc4c(Nc5cnccn5)ccnc4c3C)cn2)CC1 [9c] |  | 0 | 0 | 0 | 0 | no bioactivity | 21 | 0.12 | none |  |  | none | none | none | 
5 | Cc1c(-c2cnc(N3CCCN(C)CC3)nc2)ccc2c(Nc3cnccn3)ccnc12 [9b] | 2.5 | 0 | 0 | 0 | 0 | no bioactivity | 27 | 0.18 | none |  |  | none | none | none | 
6 | c1cc(-c2ccc3c(c2)ncc2c4ccccc4[nH]c32)cc(N2CCOCC2)c1 [6a] | 5.1 | 0 | 1 | 0 | 1 | minimal bioactivity after 5 h | 24 |  | none | 57 | 0.1 (≈ 0.0379 µg/mL) | none |  |  | 
7 | CCN1CCCN(c2ncc(-c3cc4nccc(Nc5cnccn5)c4cc3C)cn2)CC1 [8c] | 2.6 | 0 | 4 | 4 | 4 |  | 32 | 0.16 | none |  |  |  |  |  | 
8 | CCCN1CCCN(c2ncc(-c3cc4nccc(Nc5cnccn5)c4cc3C)cn2)CC1 [8d] | 3.2 | 1 | 1 | 3 | 3 | bioactivity being detected after 1 h | 35 | 0.12 |  |  |  |  |  |  | 
9 | CCN1CCN(c2ncc(-c3ccc4c(Nc5cnccn5)ccnc4c3)cn2)CC1 [4b] | 3.5 | 0 | 1 | 1 | 2 | activity after 5 h | 45 |  | none | > 300 |  |  | S, on sides |  | 
10 | COc1ccc(Nc2ccnc3cc(-c4cnc(N5CCCN(C)CC5)nc4)ccc23)cc1Cl [5d] | 2.7 | 1 | 3 | 4 | 4 | severe phenotypic responses | 9 |  |  | 120 | 6 (≈ 2.85 µg/mL) |  |  |  | 7
